In ChEMBL document CHEMBL1201862, “PubChem BioAssay data set” (2004):
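The compound was tested at five concentrations on cells cultured in 96-well plates, with a 48-hour exposure period. At the GI50, growth is halved.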 The source made the active and inactive calls. Rule as the data show it: active = GI50 up to about 1.1 µM and inactive = higher.

Columns and labels:
Experiment in all cases: NCI tumour cell line growth inhibition, 48 h
[1] = tested on: CCRF-CEM
[2] = tested on: COLO 205
[3] = tested on: EKVX
[4] = tested on: HOP-62
[5] = tested on: HOP-92
[6] = tested on: M14
[7] = tested on: MCF7
[8] = tested on: MDA-MB-231
[9] = tested on: NCI-H23
[10] = tested on: NCI-H460
[11] = tested on: NCI-H522
[12] = tested on: OVCAR-4
[13] = tested on: PC-3
[14] = tested on: SF-268
[15] = tested on: SK-MEL-5
[16] = tested on: SNB-19

COC(C)(C)[C@@H](O)[C@H]1C[C@H](C)[C@@]2(CC[C@]3(C)[C@@H]2CC[C@@H]2[C@@]4(C)CC[C@@H](OC(C)=O)C(C)(C)[C@@H]4C[C@@H](OC4OC(COC(C)=O)C(O)C(O)C4O)[C@]23C)O1 (stereo partly drawn)
GI50 [1]: 3.3 µM (inactive) | GI50 [2]: 2.38 µM (inactive) | GI50 [3]: 5.74 µM (inactive) | GI50 [4]: 12.3 µM (inactive) | GI50 [5]: 4.8 µM (inactive) | GI50 [6]: 4.8 µM (inactive) | GI50 [7]: 2.86 µM (inactive) | GI50 [8]: 8.83 µM (inactive) | GI50 [9]: 10.2 µM (inactive) | GI50 [10]: 4.37 µM (inactive) | GI50 [11]: 4.04 µM (inactive) | GI50 [12]: 3.48 µM (inactive) | GI50 [13]: 2.63 µM (inactive) | GI50 [14]: 4.98 µM (inactive) | GI50 [15]: 6.53 µM (inactive) | GI50 [16]: 8.73 µM (inactive)

O=C(O)COc1c(Cl)cc(Cl)c2cccnc12
GI50 [1]: > 100 µM (inactive) | GI50 [2]: > 100 µM (inactive) | GI50 [3]: > 100 µM (inactive) | GI50 [4]: > 100 µM (inactive) | GI50 [5]: > 100 µM (inactive) | GI50 [6]: > 100 µM (inactive) | GI50 [7]: > 100 µM (inactive) | GI50 [8]: > 100 µM (inactive) | GI50 [9]: > 100 µM (inactive) | GI50 [10]: > 100 µM (inactive) | GI50 [11]: > 100 µM (inactive) | GI50 [12]: > 100 µM (inactive) | GI50 [13]: > 100 µM (inactive) | GI50 [14]: > 100 µM (inactive) | GI50 [15]: > 100 µM (inactive) | GI50 [16]: > 100 µM (inactive)

[N-]=[N+]=Nc1c([N+](=O)[O-])c(Cl)nc2ccccc12
GI50 [1]: 0.376 µM (active) | GI50 [2]: 1.74 µM (inactive) | GI50 [3]: 3.01 µM (inactive) | GI50 [4]: 19.8 µM (inactive) | GI50 [5]: 1.95 µM (inactive) | GI50 [6]: 1.44 µM (inactive) | GI50 [7]: 1.54 µM (inactive) | GI50 [8]: 1.85 µM (inactive) | GI50 [9]: 2.6 µM (inactive) | GI50 [10]: 10.8 µM (inactive) | GI50 [11]: 0.293 µM (active) | GI50 [12]: 1.9 µM (inactive) | GI50 [13]: 1.91 µM (inactive) | GI50 [14]: 3.47 µM (inactive) | GI50 [15]: 8.99 µM (inactive) | GI50 [16]: 14.4 µM (inactive)

CC(C)(Cl)C(Cl)CC/C(CBr)=C(\Cl)CBr (stereo not drawn)
GI50 [1]: 0.15 µM (active) | GI50 [2]: 2.62 µM (inactive) | GI50 [3]: 16.5 µM (inactive) | GI50 [4]: 2.24 µM (inactive) | GI50 [5]: 1.75 µM (inactive) | GI50 [6]: 1.6 µM (inactive) | GI50 [7]: 2.49 µM (inactive) | GI50 [8]: 2 µM (inactive) | GI50 [9]: 1.85 µM (inactive) | GI50 [10]: 2.71 µM (inactive) | GI50 [11]: 0.55 µM (active) | GI50 [12]: 1.51 µM (inactive) | GI50 [13]: 3.15 µM (inactive) | GI50 [14]: 3.3 µM (inactive) | GI50 [15]: 1.79 µM (inactive) | GI50 [16]: 11.1 µM (inactive)

FC(F)(Sc1ncccn1)c1nc2ccccc2o1
GI50 [1]: 33.5 µM (inactive) | GI50 [2]: > 100 µM (inactive) | GI50 [4]: > 100 µM (inactive) | GI50 [5]: 56.8 µM (inactive) | GI50 [6]: > 100 µM (inactive) | GI50 [7]: > 100 µM (inactive) | GI50 [8]: > 100 µM (inactive) | GI50 [9]: > 100 µM (inactive) | GI50 [10]: > 100 µM (inactive) | GI50 [11]: > 100 µM (inactive) | GI50 [12]: > 100 µM (inactive) | GI50 [13]: 89.1 µM (inactive) | GI50 [14]: > 100 µM (inactive) | GI50 [15]: > 100 µM (inactive)

O=C(C=P(c1ccccc1)(c1ccccc1)c1ccccc1)c1cccc(-c2cccc([N+](=O)[O-])c2)c1
GI50 [1]: 2.55 µM (inactive) | GI50 [2]: 1.53 µM (inactive) | GI50 [3]: 4.3 µM (inactive) | GI50 [4]: 8.04 µM (inactive) | GI50 [5]: 1.32 µM (inactive) | GI50 [6]: 3.13 µM (inactive) | GI50 [7]: 3.47 µM (inactive) | GI50 [8]: 2 µM (inactive) | GI50 [9]: 3.44 µM (inactive) | GI50 [10]: 2.88 µM (inactive) | GI50 [11]: 1.86 µM (inactive) | GI50 [12]: 2.45 µM (inactive) | GI50 [13]: 2.84 µM (inactive) | GI50 [14]: 3.93 µM (inactive) | GI50 [15]: 2.37 µM (inactive) | GI50 [16]: 4.21 µM (inactive)

Cc1ccc2c(c1)SC1=Nc3sc4cc(C)ccc4[n+]3CN12
GI50 [2]: 2.7 µM (inactive) | GI50 [3]: 0.687 µM (active) | GI50 [4]: 9.57 µM (inactive) | GI50 [5]: 2.97 µM (inactive) | GI50 [6]: 3.59 µM (inactive) | GI50 [7]: 4.44 µM (inactive) | GI50 [8]: 10.8 µM (inactive) | GI50 [9]: 1.98 µM (inactive) | GI50 [10]: 11.7 µM (inactive) | GI50 [11]: 1.05 µM (active) | GI50 [12]: 2.51 µM (inactive) | GI50 [13]: 15.4 µM (inactive) | GI50 [14]: 8.26 µM (inactive) | GI50 [15]: 1.07 µM (active) | GI50 [16]: 3.24 µM (inactive)

COC(=O)c1cc2c(c(C(=O)OC)c1)CCC2
GI50 [1]: 50.8 µM (inactive) | GI50 [3]: > 100 µM (inactive) | GI50 [4]: > 100 µM (inactive) | GI50 [5]: 49.9 µM (inactive) | GI50 [6]: > 100 µM (inactive) | GI50 [7]: > 100 µM (inactive) | GI50 [8]: 82.8 µM (inactive) | GI50 [9]: > 100 µM (inactive) | GI50 [10]: > 100 µM (inactive) | GI50 [11]: 58.2 µM (inactive) | GI50 [12]: > 100 µM (inactive) | GI50 [13]: 68.5 µM (inactive) | GI50 [14]: > 100 µM (inactive) | GI50 [15]: 56.1 µM (inactive) | GI50 [16]: > 100 µM (inactive)

CC(O)(c1ccccc1)c1nccc2ccccc12 (stereo not drawn)
GI50 [1]: 58.6 µM (inactive) | GI50 [2]: 70.6 µM (inactive) | GI50 [4]: > 100 µM (inactive) | GI50 [5]: 22.4 µM (inactive) | GI50 [6]: 74.5 µM (inactive) | GI50 [7]: 80.9 µM (inactive) | GI50 [8]: 20.1 µM (inactive) | GI50 [9]: > 100 µM (inactive) | GI50 [10]: 96.4 µM (inactive) | GI50 [11]: 50.5 µM (inactive) | GI50 [12]: 37.7 µM (inactive) | GI50 [13]: 22.6 µM (inactive) | GI50 [14]: 95.7 µM (inactive) | GI50 [15]: 44.2 µM (inactive) | GI50 [16]: > 100 µM (inactive)

O=Cc1cc(O)c(O)c(/C=N/n2c3ccccc3c3ccccc32)c1
GI50 [1]: 1.58 µM (inactive) | GI50 [2]: 10.8 µM (inactive) | GI50 [3]: 18.9 µM (inactive) | GI50 [4]: 11.2 µM (inactive) | GI50 [5]: 2.72 µM (inactive) | GI50 [6]: 6.1 µM (inactive) | GI50 [7]: 0.64 µM (active) | GI50 [8]: 7.1 µM (inactive) | GI50 [9]: 8.09 µM (inactive) | GI50 [10]: 6.03 µM (inactive) | GI50 [11]: 2.64 µM (inactive) | GI50 [12]: 2.17 µM (inactive) | GI50 [13]: 10.1 µM (inactive) | GI50 [14]: 3.98 µM (inactive) | GI50 [16]: 8.61 µM (inactive)

N#CC12CC(C=O)=C(N)C1(C#N)CC(C=O)=C2N (stereo not drawn)
GI50 [1]: 36.7 µM (inactive) | GI50 [2]: > 100 µM (inactive) | GI50 [3]: > 100 µM (inactive) | GI50 [4]: 65.9 µM (inactive) | GI50 [5]: 32.5 µM (inactive) | GI50 [6]: 35.9 µM (inactive) | GI50 [7]: 58.9 µM (inactive) | GI50 [8]: > 100 µM (inactive) | GI50 [9]: 28.3 µM (inactive) | GI50 [11]: > 100 µM (inactive) | GI50 [13]: 72.3 µM (inactive) | GI50 [14]: 31.1 µM (inactive) | GI50 [15]: 20.8 µM (inactive) | GI50 [16]: 52.8 µM (inactive)

COc1cc(O)c2c(=O)c(OC)c(-c3ccc(OC)c(O)c3)oc2c1 [AYANIN]
GI50 [1]: 23.6 µM (inactive) | GI50 [2]: 76.9 µM (inactive) | GI50 [3]: 62.5 µM (inactive) | GI50 [4]: 31.5 µM (inactive) | GI50 [6]: 52.2 µM (inactive) | GI50 [7]: 15.5 µM (inactive) | GI50 [8]: 14.8 µM (inactive) | GI50 [9]: 69.5 µM (inactive) | GI50 [10]: 14 µM (inactive) | GI50 [11]: 29.1 µM (inactive) | GI50 [12]: 22.1 µM (inactive) | GI50 [13]: 30.8 µM (inactive) | GI50 [14]: 33.2 µM (inactive) | GI50 [15]: 20.4 µM (inactive) | GI50 [16]: > 100 µM (inactive)

Cc1cc(-c2nc3ccccc3s2)ccc1NC(=O)[C@H](C)N
GI50 [1]: 7.89 µM (inactive) | GI50 [2]: 13.2 µM (inactive) | GI50 [4]: 13.8 µM (inactive) | GI50 [5]: 15.7 µM (inactive) | GI50 [6]: 3.14 µM (inactive) | GI50 [7]: 0.372 µM (active) | GI50 [8]: 14.3 µM (inactive) | GI50 [9]: 16.5 µM (inactive) | GI50 [10]: 10.1 µM (inactive) | GI50 [11]: 24.2 µM (inactive) | GI50 [12]: 12.2 µM (inactive) | GI50 [13]: 13.1 µM (inactive) | GI50 [14]: 18.3 µM (inactive) | GI50 [15]: 13 µM (inactive) | GI50 [16]: 15.1 µM (inactive)
